Source: ChEMBL document CHEMBL1121918, “Synthesis and pharmacological evaluation of poly(oxyethylene) derivatives of 4-isobutylphenyl-2-propionic acid (ibuprofen)” (J Med Chem, 1981)

Test: Lethal dose in mice when administered orally
Type: toxicity, organism-based
Settings: mouse, in vivo, po

SMILES	LD50
CC(C)Cc1ccc(C(C)C(=O)OCCOCCOCCOCCOCCOCCOCCOCCOCCOCCOCCOCCOCCOCCOCCOCCOCCOCCOCCOCCOCCOCCOCCOCCOCCOCCOCCOCCOCCOCCOCCOCCOCCOCCOCCOCCOCCOCCOCCOCCOCCOCCOCCOCCOCCOC(=O)C(C)c2ccc(CC(C)C)cc2)cc1 (stereo not drawn)	> 2000 mg/kg
CC(C)Cc1ccc(C(C)C(=O)OCCOCCOCCOCCO)cc1 (stereo not drawn)	> 2000 mg/kg
CC(C)Cc1ccc(C(C)C(=O)OCCOCCOCCOCCOCCOCCOCCOCCOCCOCCOCCOCCOCCOCCOCCOCCOCCOCCOCCOCCOC(=O)C(C)c2ccc(CC(C)C)cc2)cc1 (stereo not drawn)	> 2000 mg/kg
